Assays:
[1] = tested on: T-47D; experiment: In vitro cytotoxicity (MTT) assay; assay type: cell-based; settings: Homo sapiens, T47D
Protocol: (§1) The effect of andrographolide on cell viability was measured by MTT assay following the method by Mosmann. Briefly, the cells (1 × 10^5 cells per ml) were seeded in a 96 well micro titer plate (100 μl per well) with replications. Treatment was conducted for 24 and 48 h with different concentrations (0, 5, 7.5, 15, 30, 45, 60, 75 and 100 μM) of andrographolide. After incubation, 20 μl of 5 mg/ml MTT stock solution was added to each well and incubated for 4 h at 37 °C. The obtained formazan crystals were solubilized with DMSO and the absorbance was measured at 570 nm using a microplate reader (SpectraMax M5, Molecular Devices, USA). Cell viability (%) has been shown as a ratio of absorbance (A570) in treated cells to absorbance in control cells (0.1 % DMSO) (A570). The IC50 was calculated as the concentration of sample needed to reduce 50 % of the absorbance in comparison to the DMSO-treated control. Percent cell viability was calculated following the equation: Cellviability%=A570Sample/A570ControlDMSO×100

[2] = tested on: MCF-7; experiment: In vitro cytotoxicity (MTT) assay; assay type: cell-based; settings: Homo sapiens
Protocol: as §1

[3] = tested on: MCF-10A normal human breast epithelial immortalized cell line; experiment: In vitro cytotoxicity (MTT) assay; assay type: cell-based; settings: for IC50: Homo sapiens, MCF-10A, MTT
Protocol: as §1

[4] = tested on: caspase-9; experiment: Caspase activity assay in MCF-7 cells; assay type: cell-based, human; settings: MCF-7, 0-80 μM, 24 h
Protocol: (§2) MDA-MB-231 cells (1 × 10^5 cells per ml) were incubated with different concentrations of andrographolide (0, 15, 30, 45 and 60 μM) for 24 h and then centrifuged to detect caspase-3 and caspase-9 activation using caspase fluoremetric protease assay kit following manufacturer’s instructions. Briefly, cells were lysed in RIPA buffer supplemented with protease inhibitor cocktail and 10 μl lysate were diluted with 10 μl substrate buffer (1:1) containing 100 μM each of fluorogenic substrate, DEVD-AFC and LEHD-AFC for caspase-3 and caspase-9 respectively, and was then incubated for 90 min at 37 °C. Reactions were stopped using 0.2 mM sodium phosphate buffer (pH 7.5) and fluorescence was quantified by a spectrofluorometer (excitation, 405 nm; emission, 505 nm). Experiment was also performed using MCF-7 cells.

[5] = tested on: male mice; set-up: method as in PMID 2228074; settings: intraperitoneal route; cited from earlier work
[6] = tested on: MDA-MB-231; experiment: Cellular ROS level (DCF-DA); assay type: cell-based, human; settings: 15, 30, 45 and 60 μM, 12-48 h
Protocol: To estimate intracellular ROS level, MDA-MB-231 (2 × 10^4 cells per well) were treated with andrographolide (15, 30, 45 and 60 μM) for 12–48 h and were harvested by centrifugation for the assay. The cell suspension (200 μl, containing 1 × 10^5 cells per ml) was mixed to PBS (800 μl) and 10 μM 2ʹ, 7ʹ-dichlorofluorescein diacetate (DCF-DA) and kept at 37 °C for 30 min in the dark. 25 μM H2O2 was used for positive control. The intracellular ROS level was measured by determining the production of H2O2 using a spectrofluorometer (excitation, 488 nm; emission, 515 nm). Another set of experiment was similarly performed where MDA-MB-231 cells were pre-treated with 3 mM NAC for 1 h followed by without or with andrographolide (30 μM) treatment. Same experiment was also performed using MCF-7 cells.

[7] = tested on: MDA-MB-231 cells; experiment: Mitochondrial membrane potential (Rhodamine 123); assay type: cell-based, human; settings: 15-60 μM, 24 and 48 h
Protocol: The loss of mitochondrial membrane potential (∆ψm) (MMP) is a primary event leading to phosphatidyl serine externalization, which corresponds with the activation of caspase. MMP was quantified by the incorporation of a fluorescent dye Rhodamine 123 [25]. Cells (1 × 10^4 per well) were incubated with different concentrations (15, 30, 45 or 60 μM) of andrographolide in the absence or presence of NAC for 24 and 48 h. Positive control was obtained with a mitochondrial uncoupling agent, carbonyl cyanide m-chloro-phenylhydrazone (CCCP; 20 μM) for 30 min. The treated cells were washed twice with chilled PBS before incubation with Rhodamine 123 (5 μg/ml) and kept at 37 °C for 15 min. The fluorescence intensity was detected using an emission filter of 535 nm. Same experiment was also performed using MCF-7 cells.

[8] = tested on: caspase-3; experiment: Caspase activity assay (fluorometric, DEVD-AFC) in MDA-MB-231 cells; assay type: cell-based, human; settings: 0-60 μM, 24 h
Protocol: as §2

Question: For `C=C1CC[C@@H]2[C@](C)(CO)[C@H](O)CC[C@@]2(C)[C@@H]1C/C=C1/C(=O)OC[C@H]1O` [andrographolide], which IC50 ([1]; 24 h) is on record?
Answer: 118 µM

Question: What about the IC50 ([1]; 48 h) of the same compound?
Answer: 72.6 µM

Question: And the IC50 ([2]; MCF7, MCF-7, 24 h)?
Answer: 61.1 µM

Question: What about the IC50 ([2]; MCF7, MCF-7, 48 h) of the same compound?
Answer: 36.9 µM

Question: And the “IC50 at 48 h for MCF-10A higher than that for MDA-MB-231 cells” value ([3]; 48 h, MCF-10A vs MDA-MB-231)?
Answer: ~3.5 fold

Question: What about the IC50 ([3]; 24 h) of the same compound?
Answer: 138 µM

Question: What about the IC50 ([3]; 48 h) of the same compound?
Answer: 106 µM

Question: And the “treatment did not affect normal breast epithelial cells, MCF-10A” value ([3]; abstract, quantity not named (presumably viability))?
Answer: > 80%

Question: What about the “caspase-9 (initiator caspase) activation” value [4] of the same compound?
Answer: activation in a dose-dependent manner

Question: What about the LD50 [5] of the same compound?
Answer: 11460 mg/kg

Question: And the “ROS generation (DCF fluorescence)” value [6]?
Answer: increasing ROS generation with longer exposure and elevated dose

Question: And the MMP level [7]?
Answer: significant (P < 0.01) drop of MMP level

Question: And the “activation of caspase-3” value [8]?
Answer: gradual dose-dependent activation

From article PMC4833932, “Cytotoxicity and cell cycle arrest induced by andrographolide lead to programmed cell death of MDA-MB-231 breast cancer cell line” (Journal of Biomedical Science, 2016)
